Experimental data taken from paper PMC6312359, “Diisopropylphenyl-imidazole (DII): A new compound that exerts anthelmintic activity through novel molecular mechanisms” (PLoS Neglected Tropical Diseases, 2018).
In brackets after ≈: the same amount, converted by molar mass. Several values for one entry are separate records, joined by “and”; a condition that tells them apart may be missing. Equal entries are not always repeated. Where two headings read alike, the source gives them in different places. Blank lines part the entries; values can stand above or below the molecule they belong to.

Key:
C. elegans [1] = tested on: C. elegans; parameters: method as in PMID 21195075, PMID 23869246; conditions: 24 h, even at millimolar concentrations, ref [39], [41]; cited from earlier work
C. elegans [2] = experiment: Screening imidazole compounds: worm survival; type: in vivo, Caenorhabditis elegans; conditions: 150 μg/ml, 72 h, 20°C, young adult wild-type worms, liquid medium (S-Basal) with E. coli OP50
Procedure: 100–150 young adult wild-type worms were exposed to these compounds (150 μg/ml) in liquid medium (S-Basal) containing E. coli OP50. Micromolar concentrations for each compound are: 487 μM for 1, 428 μM for 2, 410 μM for 3, 375 μM for 4, 789 μM for 5, 735 μM for 6, 389 μM for 7, 319 μM for 8, 263 μM for 9, 806 μM for 10 and 657 μM for 11. Compounds were dissolved in water or DMSO according to their solubility. After 72 h, animal survival was analyzed. An animal was considered dead if it made no movement in response to gentle prodding with a worm pick. At least three independent experiments were analyzed.
We exposed 100–150 young adult worms to these compounds in liquid medium (S-Basal) containing the bacteria E. coli OP50 as a food source. After 72 h at 20°C, we analyzed worm survival (Fig 1B). […] The drug concentration chosen for this screening was 150 μg/ml, which is similar to those used in other screening studies. The corresponding molar concentration for each compound is detailed in Materials and Methods. Depending on their solubility properties, the compounds were dissolved either in water or DMSO (up to 0.75% final concentration).

E. coli OP50 = experiment: OP50 growth in screening wells (qualitative); type: cell-based, Escherichia coli; conditions: 150 μg/ml, qualitative observation
Text: During the screening assays, we qualitatively noticed that OP50 growth was inhibited in wells containing MI. This effect was not observed with DII. To quantify this observation, we determined minimum inhibitory concentration (MIC) and minimum bactericidal concentration (MBC) of both compounds in E. coli cultures (Fig 2A). […] Similar values were obtained when we performed these assays on S. aureus, a Gram-positive bacteria (Fig 2A). […] As we are here screening for specific anthelmintic activity, we restricted our further analysis to compounds that appear to exert nematicidal action without obvious lethal effects on other organisms. Therefore, we focused our studies only on DII, relegating the evaluation of MI as a potential anthelmintic drug.

[3] = tested on: Escherichia coli ATCC 25922; experiment: Minimum inhibitory and bactericidal concentrations, microdilution; type: cell-based; conditions: 24 h at 37°C; for MBC / MIC: Escherichia coli, ATCC25922
Procedure: (§1) The strains used in this study were Escherichia coli ATCC 25922 and Staphylococcus aureus ATCC 25923, kindly provided by Dr. Ziegler (Bacillus Genetic Stock Center, The Ohio State University). Stocks were stored in Mueller Hinton Broth (MHB, Biokar Diagnostics, France) supplemented with glycerol 20% at -70°C. Before running each test, the strains were incubated for 48 h at 37°C in MHB. Finally, the bacterial strains were sub-cultured in MHB at 37°C for 24 h. The solutions of antimicrobial agents and imidazolium salts were prepared following the Clinical and Laboratory Standards Institute (CLSI) guidelines for determination of Minimum Inhibitory Concentrations by the microdilution method (CLSI 2009). […] Cultures were incubated as described above and adjusted to OD625nm ~ 0.08–0.13 by the direct colony suspension method in saline water and finally adjusted to 2–8 10^5 CFU/ml by diluting 1:150 in MHB before testing. A volume of 100 μl of each sample dilution in saline water was transferred to the microplate well. Finally, an equal volume of the inoculum was added. The MIC was the lowest concentration at which there was no visible growth when compared with controls after 24 h at 37°C. To assess the minimum bactericidal concentration (MBC), 20 μl aliquots were taken from the wells where no visible growth was observed, seeded on petri dishes and covered with MH agar (MHA) at 45°C. The compounds were considered bactericidal at the concentration at which no visible colony was observed on the plate after 24 h at 37°C. All conditions were run at least in duplicate. The results were obtained from at least 3 independent experiments.

[4] = tested on: Staphylococcus aureus ATCC 25923; experiment: as above; type: cell-based; conditions: ATCC25923, 24 h at 37°C; for MBC: read-out: MBC S. aureus; for MIC: read-out: MIC S. aureus
Procedure: as §1

C. elegans [5] = experiment: Acute paralysis assays; type: in vivo, Caenorhabditis elegans
Procedure: Acute paralysis assays were carried out in microtiter plates containing the drug dissolved in M9 buffer. […] Each drug concentration was tested in two wells (containing 30 animals each) within a single experiment. […] The experiment was independently repeated at least three times.

C. elegans [6] = experiment: Worm cut preparation paralysis; type: in vivo, Caenorhabditis elegans; conditions: 10 min; DII 600 μM, levamisole 10 μM
Procedure: Cutworm assays were performed as previously described with slight modifications. Briefly, synchronized young adult animals were mounted in a glass microscope slide containing Artificial Perienteric Fluid (APF) (67 mM NaCl, 67 mM NaCH3COOH, 3 mM KCl, 15.7 mM MgCl2, 3 mM CaCl2 and 5 mM Tris, pH 7.6). 10 animals were severed between the middle and tail, approximately two-thirds from the anterior end. Worms were subsequently transferred to a multi-well plate containing APF or drug-APF and paralysis was evaluated after 10 minutes. All experiments were performed at least three times.

C. elegans [7] = experiment: Body length measurements; type: in vivo, Caenorhabditis elegans; conditions: 600 μM, 2 h
Procedure: Vehicle (0.75% DMSO) was used as a control. After 2 h, images were acquired and body length was measured using FIJI-ImageJ software. At least three independent experiments were analyzed.

C. elegans [8] = experiment: Egg-laying assays; type: in vivo, Caenorhabditis elegans; conditions: gravid worms
Procedure: Age-synchronized gravid worms were transferred to solid NGM plates containing different drug concentrations (100–300 μM). Each concentration was evaluated in triplicate and DMSO was used as a control. After 1 h, the number of laid eggs per worm was counted. This experiment was independently repeated three times.

Molecule: CC(=O)Oc1ccccc1C(=O)Nc1ncc([N+](=O)[O-])s1 [nitazoxanide]
C. elegans death (C. elegans [1]): less than 25%

Molecule: CCCSc1ccc2nc(NC(=O)OC)[nH]c2c1 [albendazole]
C. elegans death (C. elegans [1]): less than 25%

Molecule: Cc1cc(C)c(-n2ccnc2)c(C)c1 [Compound 10, mesityl-imidazole]
worm death (C. elegans [2]): 100%
OP50 growth in screening wells (E. coli OP50): inhibited
MIC E. coli ([3]; listed as MI (10)): 128 µg/mL (≈ 687 µM)
MBC [3]: > 256 µg/mL
MIC [3]: 128 µg/mL and 680 µM
MBC [4]: > 256 µg/mL
MIC [4]: 128 µg/mL (≈ 687 µM)

EC50 (C. elegans [5]; 10 min, L4 wild-type, Fig 4B, read-out: EC50 acute paralysis): 63.6 µM
EC50 (C. elegans [5]; Caenorhabditis elegans, 10 min, Fig 4E black circle (probably levamisole alone), 10 min, read-out: EC50 levamisole paralysis): 60 ± 1.12 µM
EC50 (C. elegans [5]; Caenorhabditis elegans, 10 min, Fig 4E dark pink triangle up (constant DII, probably 100 μM), 10 min, read-out: EC50 levamisole paralysis in presence of DII): 66 ± 1.15 µM
EC50 (C. elegans [5]; Caenorhabditis elegans, 10 min, Fig 4E light pink triangle down (constant DII, probably 200 μM), 10 min, read-out: EC50 levamisole paralysis in presence of DII): 62.2 ± 1.14 µM
EC50 (C. elegans [5]; Caenorhabditis elegans, 10 min, L4 wild-type, Fig 4B, read-out: EC50 acute paralysis): 63.6 ± 1.1 µM
EC50 (C. elegans [5]; Caenorhabditis elegans, 24 h, S5D Fig pink triangle (probably DII 100 μM for 24 h and during assay), read-out: EC50 levamisole paralysis after DII pre-exposure): 82.2 ± 1.39 µM
EC50 (C. elegans [5]; Caenorhabditis elegans, S5D Fig black circle (probably control without DII), read-out: EC50 levamisole paralysis): 82.4 ± 1.23 µM
Molecule: c1ccc([C@H]2CN3CCSC3=N2)cc1 [levamisole]
paralysis in CB407 unc-49(e407)III hypersensitive strain (C. elegans [5]; 100 μM, 10 min): hypersensitive
paralyzed animals (C. elegans [5]; 600 μM, 10 min): 100%
paralysis in cut specimens (C. elegans [6]): paralysis is achieved at very low levamisole concentrations
body length (C. elegans [7]): worm shrinkage
laid eggs in 1 h, fold more than controls (C. elegans [8]; 100 μM): 3.8 fold
laid eggs in 1 h, fold more than controls (C. elegans [8]; 300 μM): 3.2 fold

Molecule: CN1CCCN=C1/C=C/c1cccs1 [pyrantel]
C. elegans death (C. elegans [1]): less than 25%

Molecule: O=C(O)c1cn(C2CC2)c2cc(N3CCNCC3)c(F)cc2c1=O [cipro., ciprofloxacin, reference compound]
MBC [3]: 1 µg/mL (≈ 3.02 µM)
MIC [3]: 0.25 µg/mL (≈ 0.754 µM)
MBC [4]: 1 µg/mL (≈ 3.02 µM)
MIC [4]: 0.5 µg/mL (≈ 1.51 µM)

Molecule: ivermectin
C. elegans death (C. elegans [1]): less than 25%
